Like-named read-outs stand apart in the source and are kept apart here.
How the values were obtained:
[1] = Free energy of hydration predicted by General Amber Force Field (GAFF), from literature; details: Table 5; error of GAFF hydration free energy vs experiment
[2] = Table 5; free energy of hydration, GAFF prediction taken from literature; cited from earlier work
[3] = Free energy of hydration by Free Energy Machine Learning Model (FML); details: absolute error vs Exp (hydration)
Excerpt: Machine learning models can be used for free energy determination.

[4] = implicit solvent model, values received; cited from earlier work
[5] = Table 5; free energy of hydration, AMOEBA prediction taken from literature; cited from earlier work
[6] = Free energy of hydration predicted with the QM-parameterized force field model (ARROW FF), classical MD and PIMD simulation in a water box; details: for Arrow error: Table 5, error of Arrow PIMD8 hydration free energy vs experiment; for Arrow PIMD8 Error: absolute error vs Exp (hydration)
Method in brief: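 Solute decoupled from solvent in a 32×32×32 Å3 water box (PME, 9 Å cutoffs), electrostatics, exchange-repulsion and dispersion switched off together over 15 lambda points with soft-coring. Steepest-descent minimization, 50 ps equilibration, 1 ns NPT production at 1 atm; classical and path-integral MD. Free energy from BAR and TI.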

[7] = experimental, cited from earlier work; for Exp (hydration): Table 5
[8] = implicit solvent model, values received; cited from earlier work; remark: listed apart in the source
[9] = Free energy of hydration predicted by polarizable AMOEBA force field, from literature; details: Table 5; error of AMOEBA hydration free energy vs experiment
[10] = Free energy of hydration by COSMO-RS
Method in brief: (§1)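 COSMO solvation free energies were calculated for the molecule set with MolPro because no original-COSMO free energy data were available. SMD and PCM hydration free energies were obtained as received. SMD, PCM and COSMO-RS values cover only molecules that overlap with those computed using the QM-parameterized force field model.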

[11] = Free energy of hydration by Solvation Model Dielectric (SMD) implicit solvent model; details: absolute error vs Exp (hydration)
Method in brief: as §1

[12] = experimental, cited from earlier work
[13] = Free energy of hydration by Polarizable Continuum Model (PCM); details: absolute error vs Exp (hydration)
Method in brief: as §1

[14] = Free energy of hydration by COSMO implicit solvent model (MolPro ver. 2012); details: absolute error vs Exp (hydration)
Method in brief: as §1

[15] = Free energy of solvation in cyclohexane predicted with the QM-parameterized force field model (ARROW FF), MD and PIMD; details: Table 4
Method in brief: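 Solute–cyclohexane interactions decoupled over 15 λ points with soft-core scaling, in MD and path-integral simulations under NPT at 1 atm using PME electrostatics and 9 Å cutoffs. Each window had 50 ps equilibration and 1 ns production; free energies from BAR and TI.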

[16] = Table 3, absolute error of MD hydration free energy vs experiment
[17] = Table 3, absolute error of PIMD8 hydration free energy vs experiment
[18] = Table 3, free energy of hydration
[19] = Table 3, free energy of solvation in cyclohexane

CC(C)O [2-Propanol]
GAFF error [1]: 1.34 kcal/mol
GAFF [2]: -3.28 kcal/mol
FML error [3]: 0.29 kcal/mol
SMD free energy of hydration [4]: -4.30 kcal/mol
AMOEBA [5]: -4.21 kcal/mol
water Arrow MD Error [6, 16]: 1.26 kcal/mol
water Arrow PIMD8 Error [6, 17]: 0.00 kcal/mol
Arrow error [6]: 0.00 kcal/mol
Arrow PIMD8 Error [6]: 0.00 kcal/mol
water Exp (hydration) [7, 18]: -4.62 kcal/mol
Exp (hydration) ([7]; free energy of hydration): -4.62 kcal/mol
PCM free energy of hydration [8]: -3.10 kcal/mol
AMOEBA error [9]: 0.41 kcal/mol
COSMO-RS error [10]: 0.00 kcal/mol
SMD Error [11]: 0.32 kcal/mol
CHEX Exp (solvation) [12, 19]: -2.37 kcal/mol
PCM Error [13]: 1.52 kcal/mol

CC [Ethane]
GAFF error [1]: 0.79 kcal/mol
GAFF [2]: 2.58 kcal/mol
FML error [3]: 0.85 kcal/mol
SMD free energy of hydration [4]: 1.80 kcal/mol
AMOEBA [5]: 1.73 kcal/mol
water Arrow MD Error [6, 16]: 0.42 kcal/mol
water Arrow PIMD8 Error [6, 17]: 0.12 kcal/mol
Arrow error [6]: 0.12 kcal/mol
Arrow PIMD8 Error [6]: 0.12 kcal/mol
water Exp (hydration) [7, 18]: 1.79 kcal/mol
Exp (hydration) ([7]; free energy of hydration): 1.79 kcal/mol
PCM free energy of hydration [8]: -0.10 kcal/mol
AMOEBA error [9]: 0.06 kcal/mol
COSMO-RS error [10]: 0.02 kcal/mol
SMD Error [11]: 0.01 kcal/mol
PCM Error [13]: 1.89 kcal/mol
COSMO/Molpro Error [14]: 2.19 kcal/mol

CCO [Ethanol]
GAFF error [1]: 1.56 kcal/mol
GAFF [2]: -3.45 kcal/mol
FML error [3]: 0.08 kcal/mol
SMD free energy of hydration [4]: -4.20 kcal/mol
AMOEBA [5]: -4.69 kcal/mol
water Arrow MD Error [6, 16]: 0.74 kcal/mol
water Arrow PIMD8 Error [6, 17]: 0.07 kcal/mol
water Arrow MD Error ([6]; Table 4, error of MD hydration free energy vs experiment): 0.74 kcal/mol
water Arrow PIMD8 Error ([6]; Table 4, error of PIMD8 hydration free energy vs experiment): 0.07 kcal/mol
Arrow error [6]: 0.07 kcal/mol
Arrow PIMD8 Error [6]: 0.07 kcal/mol
water Exp (hydration) [7, 18]: -5.01 kcal/mol
water Exp (hydration) ([7]; Table 4, neutral amino-acid analogues): -5.01 kcal/mol
Exp (hydration) ([7]; free energy of hydration): -5.01 kcal/mol
PCM free energy of hydration [8]: -3.10 kcal/mol
CHEX Arrow MD Error ([15]; error of MD cyclohexane solvation free energy vs experiment): 0.05 kcal/mol
CHEX Arrow PIMD4 Error ([15]; error of PIMD4 cyclohexane solvation free energy vs experiment): 0.12 kcal/mol
AMOEBA error [9]: 0.32 kcal/mol
COSMO-RS error [10]: 0.07 kcal/mol
SMD Error [11]: 0.81 kcal/mol
CHEX Exp (solvation) [12, 19]: -2.59 kcal/mol
CHEX Exp (solvation) ([12]; Table 4, solvation free energy in cyclohexane): -2.59 kcal/mol
PCM Error [13]: 1.91 kcal/mol
COSMO/Molpro Error [14]: 1.19 kcal/mol

CNC(C)=O [N-Methylacetamide]
GAFF error [1]: 1.61 kcal/mol
GAFF [2]: -8.39 kcal/mol
FML error [3]: 1.89 kcal/mol
SMD free energy of hydration [4]: -8.60 kcal/mol
AMOEBA [5]: -8.66 kcal/mol
water Arrow MD Error [6, 16]: 1.52 kcal/mol
water Arrow PIMD8 Error [6, 17]: 0.49 kcal/mol
Arrow error [6]: 0.49 kcal/mol
Arrow PIMD8 Error [6]: 0.49 kcal/mol
water Exp (hydration) [7, 18]: -10 kcal/mol
Exp (hydration) ([7]; free energy of hydration): -10.00 kcal/mol
PCM free energy of hydration [8]: -6.60 kcal/mol
AMOEBA error [9]: 1.34 kcal/mol
COSMO-RS error [10]: 0.27 kcal/mol
SMD Error [11]: 1.40 kcal/mol
PCM Error [13]: 3.40 kcal/mol
COSMO/Molpro Error [14]: 3.10 kcal/mol

CCCCCCCCO [Octanol]
GAFF error [1]: 1.11 kcal/mol
GAFF [2]: -5.20 kcal/mol
FML error [3]: 0.02 kcal/mol
SMD free energy of hydration [4]: -3.40 kcal/mol
AMOEBA [5]: -2.65 kcal/mol
water Arrow MD Error [6, 16]: 1.40 kcal/mol
water Arrow PIMD8 Error [6, 17]: 0.22 kcal/mol
Arrow error [6]: 0.22 kcal/mol
Arrow PIMD8 Error [6]: 0.22 kcal/mol
water Exp (hydration) [7, 18]: -4.09 kcal/mol
Exp (hydration) ([7]; free energy of hydration): -4.09 kcal/mol
PCM free energy of hydration [8]: -3.30 kcal/mol
AMOEBA error [9]: 1.44 kcal/mol
COSMO-RS error [10]: 0.18 kcal/mol
SMD Error [11]: 0.69 kcal/mol
PCM Error [13]: 0.79 kcal/mol
COSMO/Molpro Error [14]: 2.57 kcal/mol

CCCO [Propanol]
GAFF error [1]: 1.80 kcal/mol
GAFF [2]: -3.12 kcal/mol
FML error [3]: 0.11 kcal/mol
SMD free energy of hydration [4]: -4.10 kcal/mol
AMOEBA [5]: -4.85 kcal/mol
water Arrow MD Error [6, 16]: 0.58 kcal/mol
water Arrow PIMD8 Error [6, 17]: 0.18 kcal/mol
Arrow error [6]: 0.18 kcal/mol
Arrow PIMD8 Error [6]: 0.18 kcal/mol
water Exp (hydration) [7, 18]: -4.92 kcal/mol
Exp (hydration) ([7]; free energy of hydration): -4.92 kcal/mol
PCM free energy of hydration [8]: -3.10 kcal/mol
AMOEBA error [9]: 0.07 kcal/mol
COSMO-RS error [10]: 0.12 kcal/mol
SMD Error [11]: 0.82 kcal/mol
CHEX Exp (solvation) [12, 19]: -2.73 kcal/mol
PCM Error [13]: 1.82 kcal/mol
COSMO/Molpro Error [14]: 1.30 kcal/mol

c1ccncc1 [pyridine]
GAFF error [1]: 1.24 kcal/mol
GAFF [2]: -3.45 kcal/mol
FML error [3]: 0.21 kcal/mol
SMD free energy of hydration [4]: -4.20 kcal/mol
AMOEBA [5]: -5.59 kcal/mol
water Arrow MD Error [6, 16]: 0.84 kcal/mol
water Arrow PIMD8 Error [6, 17]: 0.08 kcal/mol
Arrow error [6]: 0.08 kcal/mol
Arrow PIMD8 Error [6]: 0.08 kcal/mol
water Exp (hydration) [7, 18]: -4.69 kcal/mol
Exp (hydration) ([7]; free energy of hydration): -4.69 kcal/mol
PCM free energy of hydration [8]: -3.20 kcal/mol
AMOEBA error [9]: 0.90 kcal/mol
COSMO-RS error [10]: 0.73 kcal/mol
SMD Error [11]: 0.49 kcal/mol
CHEX Exp (solvation) [12, 19]: -4.30 kcal/mol
PCM Error [13]: 1.49 kcal/mol
COSMO/Molpro Error [14]: 2.04 kcal/mol
